Experimental data published in US20100099561A1, “HETEROBICYCLIC ALKYLTHIO-BRIDGED ISOXAZOLINES” (E.I. DU PONT DE NEMOURS AND COMPANY, priority 2008, published 2010).

Columns and labels:
Assay type in all cases: in vivo
[1] = system: umbrella sedge (Cyperus difformis); test: Test B flooded paddy test, umbrella sedge; settings: Flood, scale 0 to 100
Procedure, shortened: (§1)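 Paddy-water application to 2-leaf plants in pots held under 3 cm of flooding; response is a 0–100 visual control rating against controls after 13 to 15 days, and a dash marks a missing result.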

[2] = system: ducksalad (Heteranthera limosa); test: Test B flooded paddy test, ducksalad; settings: Flood, scale 0 to 100
Procedure, shortened: as §1

[3] = system: morningglory (Ipomoea spp.); test: Test A preemergence, morningglory; settings: 0 to 100 scale (0 no effect, 100 complete control)
Procedure, shortened: (§2)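 Seeds planted in loam–sand blend; compounds in non-phytotoxic solvent with surfactant applied as directed preemergence soil spray, or postemergence to plants 2–10 cm tall at one- to two-leaf stage. After ~10 days in greenhouse, injury rated visually versus untreated controls on 0–100 scale (100 = complete control).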

corn (Zea mays) [4] = test: Test A postemergence, corn; settings: 0 to 100 scale (0 no effect, 100 complete control)
Procedure, shortened: as §2

[5] = system: barnyardgrass (Echinochloa crus-galli); test: Test B flooded paddy test, barnyardgrass; settings: Flood
Procedure, shortened: as §1

[6] = system: large crabgrass (Digitaria sanguinalis); test: Test A preemergence, large crabgrass; settings: 0 to 100 scale (0 no effect, 100 complete control)
Procedure, shortened: as §2

[7] = system: morningglory (Ipomoea spp.); test: Test A postemergence, morningglory; settings: 0 to 100 scale (0 no effect, 100 complete control)
Procedure, shortened: as §2

rice (Oryza sativa) = test: Test B flooded paddy test, rice; settings: Flood, scale 0 to 100
Procedure, shortened: as §1

[8] = system: wheat (Triticum aestivum); test: Test A postemergence, wheat; settings: 0 to 100 scale (0 no effect, 100 complete control)
Procedure, shortened: as §2

[9] = system: velvetleaf (Abutilon theophrasti); test: Test A preemergence, velvetleaf; settings: 0 to 100 scale (0 no effect, 100 complete control)
Procedure, shortened: as §2

[10] = system: pigweed (Amaranthus retroflexus); test: Test A postemergence, pigweed; settings: 0 to 100 scale (0 no effect, 100 complete control)
Procedure, shortened: as §2

[11] = system: barnyardgrass (Echinochloa crus-galli); test: Test A preemergence, barnyardgrass; settings: 0 to 100 scale (0 no effect, 100 complete control)
Procedure, shortened: as §2

[12] = system: barnyardgrass (Echinochloa crus-galli); test: Test A postemergence, barnyardgrass; settings: 0 to 100 scale (0 no effect, 100 complete control)
Procedure, shortened: as §2

[13] = system: giant foxtail (Setaria faberi); test: Test A preemergence, giant foxtail; settings: 0 to 100 scale (0 no effect, 100 complete control)
Procedure, shortened: as §2

[14] = system: wheat (Triticum aestivum); test: Test A preemergence, wheat; settings: 0 to 100 scale (0 no effect, 100 complete control)
Procedure, shortened: as §2

[15] = system: giant foxtail (Setaria faberi); test: Test A postemergence, giant foxtail; settings: 0 to 100 scale (0 no effect, 100 complete control)
Procedure, shortened: as §2

[16] = system: pigweed (Amaranthus retroflexus); test: Test A preemergence, pigweed; settings: 0 to 100 scale (0 no effect, 100 complete control)
Procedure, shortened: as §2

corn (Zea mays) [17] = test: Test A preemergence, corn; settings: 0 to 100 scale (0 no effect, 100 complete control)
Procedure, shortened: as §2

[18] = system: large crabgrass (Digitaria sanguinalis); test: Test A postemergence, large crabgrass; settings: 0 to 100 scale (0 no effect, 100 complete control)
Procedure, shortened: as §2

[19] = system: velvetleaf (Abutilon theophrasti); test: Test A postemergence, velvetleaf; settings: 0 to 100 scale (0 no effect, 100 complete control)
Procedure, shortened: as §2

CC1(C)CC([S+]([O-])Cc2c(C(F)(F)Cl)nc3n(c2=O)CCCS3)=NO1 (stereo not drawn) [Compound 36]
20: Plant response rating, Wheat ([8]; 500 g ai/ha) | Plant response rating, Barnyardgrass ([12]; 125 g ai/ha)
60: Plant response rating, Barnyardgrass ([11]; 500 g ai/ha) | Plant response rating, Foxtail, Giant ([15]; 500 g ai/ha)
0: Plant response rating, Sedge, Umbrella ([1]; 31 g ai/ha) | Plant response rating, Sedge, Umbrella ([1]; 62 g ai/ha) | Plant response rating, Sedge, Umbrella ([1]; 125 g ai/ha) | Plant response rating, Sedge, Umbrella ([1]; 250 g ai/ha) | Plant response rating, Ducksalad ([2]; 31 g ai/ha) | Plant response rating, Ducksalad ([2]; 62 g ai/ha) | Plant response rating, Ducksalad ([2]; 125 g ai/ha) | Plant response rating, Ducksalad ([2]; 250 g ai/ha) | Plant response rating, Morningglory ([3]; 125 g ai/ha) | Plant response rating, Morningglory ([3]; 500 g ai/ha) | Plant response rating, Corn (corn (Zea mays) [4]; 500 g ai/ha) | Plant response rating, Barnyardgrass ([5]; 31 g ai/ha, scale 0 to 100) | Plant response rating, Barnyardgrass ([5]; 62 g ai/ha, scale 0 to 100) | Plant response rating, Barnyardgrass ([5]; 125 g ai/ha, scale 0 to 100) | Plant response rating, Barnyardgrass ([5]; 250 g ai/ha, scale 0 to 100 (0 no effect, 100 complete control)) | Plant response rating, Morningglory ([7]; 125 g ai/ha) | Plant response rating, Rice (rice (Oryza sativa); 31 g ai/ha) | Plant response rating, Rice (rice (Oryza sativa); 62 g ai/ha) | Plant response rating, Rice (rice (Oryza sativa); 125 g ai/ha) | Plant response rating, Rice (rice (Oryza sativa); 250 g ai/ha) | Plant response rating, Wheat ([8]; 125 g ai/ha) | Plant response rating, Velvetleaf ([9]; 125 g ai/ha) | Plant response rating, Velvetleaf ([9]; 500 g ai/ha) | Plant response rating, Pigweed ([10]; 125 g ai/ha) | Plant response rating, Pigweed ([10]; 500 g ai/ha) | Plant response rating, Barnyardgrass ([11]; 125 g ai/ha) | Plant response rating, Wheat ([14]; 125 g ai/ha) | Plant response rating, Wheat ([14]; 500 g ai/ha) | Plant response rating, Pigweed ([16]; 125 g ai/ha) | Plant response rating, Pigweed ([16]; 500 g ai/ha) | Plant response rating, Corn (corn (Zea mays) [17]; 125 g ai/ha) | Plant response rating, Velvetleaf ([19]; 125 g ai/ha) | Plant response rating, Velvetleaf ([19]; 500 g ai/ha)
10: Plant response rating, Corn (corn (Zea mays) [17]; 500 g ai/ha)
30: Plant response rating, Crabgrass, Large ([6]; 125 g ai/ha) | Plant response rating, Morningglory ([7]; 500 g ai/ha) | Plant response rating, Foxtail, Giant ([13]; 125 g ai/ha) | Plant response rating, Crabgrass, Large ([18]; 125 g ai/ha)
50: Plant response rating, Crabgrass, Large ([6]; 500 g ai/ha) | Plant response rating, Barnyardgrass ([12]; 500 g ai/ha) | Plant response rating, Foxtail, Giant ([15]; 125 g ai/ha) | Plant response rating, Crabgrass, Large ([18]; 500 g ai/ha)
70: Plant response rating, Foxtail, Giant ([13]; 500 g ai/ha)

CC1(C)CC([S+]([O-])Cc2c(C(F)(F)Cl)nc3n(c2=O)CCCC3)=NO1 (stereo not drawn) [Compound 32]
40: Plant response rating, Morningglory ([7]; 125 g ai/ha) | Plant response rating, Barnyardgrass ([12]; 500 g ai/ha) | Plant response rating, Crabgrass, Large ([18]; 500 g ai/ha)
10: Plant response rating, Barnyardgrass ([12]; 125 g ai/ha) | Plant response rating, Crabgrass, Large ([18]; 125 g ai/ha) | Plant response rating, Velvetleaf ([19]; 500 g ai/ha)
0: Plant response rating, Sedge, Umbrella ([1]; 31 g ai/ha) | Plant response rating, Sedge, Umbrella ([1]; 125 g ai/ha) | Plant response rating, Ducksalad ([2]; 31 g ai/ha) | Plant response rating, Ducksalad ([2]; 125 g ai/ha) | Plant response rating, Morningglory ([3]; 125 g ai/ha) | Plant response rating, Morningglory ([3]; 500 g ai/ha) | Plant response rating, Corn (corn (Zea mays) [4]; 125 g ai/ha) | Plant response rating, Corn (corn (Zea mays) [4]; 500 g ai/ha) | Plant response rating, Barnyardgrass ([5]; 31 g ai/ha, scale 0 to 100) | Plant response rating, Barnyardgrass ([5]; 125 g ai/ha, scale 0 to 100) | Plant response rating, Rice (rice (Oryza sativa); 31 g ai/ha) | Plant response rating, Rice (rice (Oryza sativa); 125 g ai/ha) | Plant response rating, Wheat ([8]; 125 g ai/ha) | Plant response rating, Wheat ([8]; 500 g ai/ha) | Plant response rating, Velvetleaf ([9]; 125 g ai/ha) | Plant response rating, Velvetleaf ([9]; 500 g ai/ha) | Plant response rating, Pigweed ([10]; 125 g ai/ha) | Plant response rating, Wheat ([14]; 125 g ai/ha) | Plant response rating, Wheat ([14]; 500 g ai/ha) | Plant response rating, Foxtail, Giant ([15]; 125 g ai/ha) | Plant response rating, Pigweed ([16]; 125 g ai/ha) | Plant response rating, Pigweed ([16]; 500 g ai/ha) | Plant response rating, Corn (corn (Zea mays) [17]; 125 g ai/ha) | Plant response rating, Corn (corn (Zea mays) [17]; 500 g ai/ha) | Plant response rating, Velvetleaf ([19]; 125 g ai/ha)
20: Plant response rating, Barnyardgrass ([11]; 125 g ai/ha)
50: Plant response rating, Crabgrass, Large ([6]; 125 g ai/ha) | Plant response rating, Morningglory ([7]; 500 g ai/ha) | Plant response rating, Foxtail, Giant ([15]; 500 g ai/ha)
80: Plant response rating, Crabgrass, Large ([6]; 500 g ai/ha) | Plant response rating, Foxtail, Giant ([13]; 500 g ai/ha)
30: Plant response rating, Pigweed ([10]; 500 g ai/ha) | Plant response rating, Foxtail, Giant ([13]; 125 g ai/ha)
70: Plant response rating, Barnyardgrass ([11]; 500 g ai/ha)
